This test is described as follows: blockers of mitochondrial fusion, WT vs mutant – cell-based, chemical genetic, wild-type and mutant, confirmation (AID 1361). Conditions: Cell-based mitochondrial fusion phenotype, imaging.
The mark [1] stands for this setting: mutant cells, measured here: mutant cell line IC50.

This passage reports IC50 results from PubChem BioAssay AID1361 (SRMLSC, 2008).

As a reminder, the pIC50 is −log10 of the IC50, conventionally taken in molar units. Broadly, the IC50 is the concentration that inhibits the measured activity by half.

pIC50: −log10 of the molar value. Calls of active or inactive are those of the source. How the calls were made is not given here.

As to `Cc1nc(-c2cccc(NS(=O)(=O)c3cccc4ccccc34)c2)cs1`, the negative-log IC50 (pIC50) (WT cells) was 4.80 and the negative-log IC50 (pIC50) under setting [1] is below 4.60.
For the compound `CC(c1ccco1)N(C(=O)COc1ccccc1[N+](=O)[O-])c1ccccn1` (stereo not drawn), where the note is “WT cells”, the IC50 was > 25 µM (inactive). Also, under setting [1], the pIC50 was below 4.60.
In the case of `Cc1ccc(C)c(NC(=O)c2ccccc2C(=O)c2ccccc2)c1`, the pIC50 reads like this: (WT cells) 4.74; under setting [1], below 4.60.
For `CCn1ccnc1CN1CCc2c([nH]c3ccccc23)C1CC(C)C` (stereo not drawn), the IC50 (WT cells) is > 25 µM (inactive). Under setting [1], this compound gave a pIC50 below 4.60.
As to `COCCNC(=O)c1cccc(Nc2nc(-c3ccccc3)c3cc(Cl)ccc3n2)c1`, the pIC50 runs as follows: (WT cells) 4.71; under setting [1], below 4.60.
With `CCC1Oc2ccc(C)cc2N(CC(=O)N(Cc2ccc(C)o2)C2CCCC2)C1=O` (stereo not drawn), the IC50 (WT cells) was > 25 µM (inactive). For the same compound, under setting [1], the pIC50 is below 4.60.
For the compound `CCOC(=O)C(C)c1nc2ccccc2[nH]c1=O` (stereo not drawn), where the note is “WT cells”, the IC50 was > 25 µM (inactive). The compound also showed a pIC50 under setting [1] below 4.60.
Turning to `CC(C)(C)n1nnnc1C(c1ccc(Cl)cc1)N(Cc1cccnc1)Cc1ccco1` (stereo not drawn), the IC50 (WT cells) is > 25 µM (inactive). The compound also showed a pIC50 under setting [1] below 4.60.
The like results for `COC(=O)C1=C(CSc2nc3ccccc3o2)NC(=O)NC1c1cc(C)ccc1C` (stereo not drawn) were, in that order, > 25 µM (inactive) and below 4.60.
The like results for `CCC(C)Nc1c([N+](=O)[O-])cc(C)cc1[N+](=O)[O-]` (stereo not drawn) were, in that order, > 25 µM (inactive) and below 4.60.
Turning to `Cc1ccc(O)c(C(=O)/C=C/c2ccc3c(c2)OCCCO3)c1`, the pIC50 (WT cells) was 4.91 and the pIC50 under setting [1] was below 4.60.
The like results for `CC(C)N(Cc1nc(-c2ccc(Cl)cc2)no1)C(=O)CCC1CCCC1` were, in that order, 4.86 and below 4.60.
Consider `Cc1ccc(NC(=O)CCC(=O)OCC(=O)c2ccc(Oc3ccc([N+](=O)[O-])cc3)cc2)cc1C`, for which the IC50 (WT cells) is > 25 µM (inactive). Also, the pIC50 under setting [1] was below 4.60.
With `CCCCCC[n+]1c(-c2ccccc2)csc1Nc1ccccc1`, the pIC50 runs as follows: (WT cells) 5.31; under setting [1], 4.83.
The like results for `COc1ccc(C2c3c(ncn(Cc4ccco4)c3=N)Oc3ccc4ccccc4c32)cc1` (stereo not drawn) were, in that order, 4.87 and below 4.60.
`O=[N+]([O-])c1ccccc1/C=N/n1c(C2CCCCC2)n[nH]c1=S`: the IC50 (WT cells) is > 25 µM (inactive). Also, the negative-log IC50 (pIC50) under setting [1] was below 4.60.
For the compound `COC(=O)c1c(NC(=O)CN2CCC3(O)CCCCC3C2c2cc(OC)ccc2OC)sc(C)c1C` (stereo not drawn), the pIC50 is, setting by setting: (WT cells) 5.09; under setting [1], below 4.60.
With `Fc1cccc(-c2cc3nc4c(c(N5CCC6(CC5)OCCO6)n3n2)CCCC4)c1`, the IC50 (WT cells) is > 25 µM (inactive). For the same compound, the pIC50 under setting [1] is below 4.60.
For the compound `Cn1c(=O)c(NC2CCCCC2)c2c3c(cccc31)C(=O)c1ccccc1-2`, the negative logarithm of the IC50 (pIC50) runs as follows: (WT cells) 4.96; under setting [1], 4.68.
Consider `COCCn1c(=S)[nH]c2cc(C(=O)N3CCc4ccccc43)ccc2c1=O`, for which, where the note is “WT cells”, the IC50 is > 25 µM (inactive). The compound also showed a pIC50 under setting [1] below 4.60.
As for `O=C(CN1CCN(c2ccccn2)CC1)N1c2ccccc2Sc2ccc(C(F)(F)F)cc21`, the pIC50 was 4.79 (WT cells) and below 4.60 under setting [1].
As to `CCN(CC)CCNC(=O)Cn1c(-c2ccccn2)nc2ccccc21`, under setting [1], the pIC50 is below 4.60.
Turning to `O=C(Nc1ccc(F)cc1)c1ccccc1Oc1ccc(C(F)(F)F)cc1[N+](=O)[O-]`, the negative-log IC50 (pIC50) is 4.76 (WT cells) and below 4.60 under setting [1].
Regarding `CN1CCN(CCCNC(=O)c2ccc(/C=C3/Sc4ccccc4N(Cc4cccc(Cl)c4)C3=O)cc2)CC1`, the pIC50 (WT cells) was 4.92 and the pIC50 under setting [1] was below 4.90.
Consider `Cn1c(CCN2CCN(c3ccccc3)CC2)nc2cc(NC(=O)c3ccco3)ccc21`, for which the IC50 (WT cells) was > 25 µM (inactive). The compound further gave a pIC50 under setting [1] below 4.60.
For `CCc1ccc(C2=CC(c3cc(Br)ccc3F)n3ncnc3N2)cc1` (stereo not drawn), the pIC50 (WT cells) was 4.63 and the pIC50 under setting [1] is below 4.60.
As to `CC(C)=C1C2CCC1C(C(=O)Nc1sc(C)c(-c3ccc(C(C)C)cc3)c1C(N)=O)C2C(=O)O` (stereo not drawn), the pIC50 by setting is: (WT cells) 4.68; under setting [1], below 4.60.
For `CCOC(=O)c1cnc(-n2nc(C)cc2C)nc1NNc1cc(C)nc(-c2ccccc2)n1` the same measures were 4.79 and below 4.60.
Take `CNC(=S)NCCC(c1ccccc1)c1ccccc1`: the IC50 (WT cells) was > 25 µM (inactive). In addition, the pIC50 under setting [1] is below 4.60.
For `Cc1[nH][nH]c(=O)c1C(c1c(C)[nH][nH]c1=O)c1cn(Cc2ccc(Cl)c(Cl)c2)c2ccccc12`, the pIC50 (WT cells) was 5.25 and the negative-log IC50 (pIC50) under setting [1] was below 4.60.
Regarding `Clc1ccc(CNc2nc(CN3CCOCC3)nc3scc(-c4ccccc4)c23)cc1`, the pIC50 (WT cells) was 4.88 and the pIC50 under setting [1] is 4.75.
For `CC(C)(C)N/N=C1\CC(c2ccccc2)Oc2ccccc21` (stereo not drawn) the same measures were 4.84 and below 4.60.
Turning to `CCCCNC(=S)N(C)/N=C/c1c(F)c(F)c(F)c(F)c1F`, under “WT cells”, the IC50 was > 25 µM (inactive). Under setting [1], this compound showed a pIC50 below 4.60.
For `CCOC(=O)c1sc(NC(=O)/C=C/c2cnn(C)c2C)c(C(=O)OC(C)C)c1C` the same measures were > 25 µM (inactive) and below 4.60.
With `O=C(CCC1N=C2c3ccccc3N=C(SCc3cccc(Cl)c3)N2C1=O)NCc1ccco1` (stereo not drawn), the IC50 (WT cells) was > 25 µM (inactive). Further, the pIC50 under setting [1] is below 4.60.
For `CCOC(=O)c1oc2cccc(OCC(O)CNC(C)C)c2c1C` (stereo not drawn) the same measures were > 25 µM (inactive) and below 4.60.
For `O=C(NCc1ccccc1Cl)c1cnccn1` the same measures were > 25 µM (inactive) and below 4.60.
As for `COc1ccccc1-c1nnc(SCC(=O)NCc2c(C)c(Cl)cc(C(C)C)c2O)o1`, the pIC50 is 5.01 (WT cells) and below 4.60 under setting [1].
For `O=C(OCc1csc(Nc2ccccc2)n1)c1ccc(Cl)cc1` the same measures were 4.99 and 4.75.
The like results for `CCC(C)c1ccc(NC(=S)Nc2ccc(OC)cc2C)cc1` (stereo not drawn) were, in that order, 4.73 and below 4.60.
On to `Cn1c(/C=C/N2CCOCC2)c(C(=O)c2ccc(Br)cc2)c(=O)n(C)c1=O`, for which the IC50 (WT cells) was > 25 µM (inactive). For the same compound, the pIC50 under setting [1] was below 4.60.
Consider `CCOC(=O)Cn1c(=NC(=O)c2ccc([N+](=O)[O-])s2)sc2ccccc21`, for which the pIC50 is, setting by setting: (WT cells) 5.34; under setting [1], below 4.60.
Consider `CCCC[n+]1c(-c2ccc(Cl)cc2Cl)csc1Nc1ccccc1`, for which the pIC50 by setting is: (WT cells) 5.19; under setting [1], below 4.60.
Consider `Cc1nn(-c2ccccc2)c(C)c1C(=O)OCC(=O)N1CCN(S(=O)(=O)c2ccccc2)CC1`, for which the IC50 (WT cells) is > 25 µM (inactive). Also, the pIC50 under setting [1] is below 4.60.
Turning to `CCOc1ccccc1NC(=O)C(OC(=O)c1ccc(O)cc1)c1ccccc1` (stereo not drawn), the pIC50 was 5.01 (WT cells) and below 4.60 under setting [1].
As for `CC1CCN(C(=O)/C=C/c2ccc(C(C)(C)C)cc2)CC1`, the IC50 (WT cells) is > 25 µM (inactive). Under setting [1], the pIC50 was below 4.60.
As for `Cc1cccc(-n2c(-c3csc4ccccc34)n[nH]c2=S)c1`, under “WT cells”, the IC50 was > 25 µM (inactive). In addition, the pIC50 under setting [1] is below 4.60.
With `Cc1nc(NC2=NCN(C3CCCCC3C)CN2)nc2ccccc12` (stereo not drawn), the IC50 (WT cells) is > 25 µM (inactive). Besides, the pIC50 under setting [1] was below 4.60.
`Cc1ccc(C)c(NC(=O)c2cc(-c3ccccc3)nn2-c2ccccc2)c1`: the pIC50 (WT cells) was 5.30 and the pIC50 under setting [1] was below 4.60.
`COC(=O)c1ccn(C(=O)c2ccc(Cl)cc2)n1`: the IC50 (WT cells) is > 25 µM (inactive). Further, the pIC50 under setting [1] is below 4.60.
For `C/C(=N\O)c1ccc2c3c([nH]c2c1)CCCC3`, the IC50 (WT cells) is > 25 µM (inactive). This compound gave a pIC50 under setting [1] below 4.60.
On to `COc1ccc(-c2nnc(SCc3cc(C)cc(C)c3)o2)cc1`, for which the pIC50 is, setting by setting: (WT cells) 4.89; under setting [1], below 4.60.
With `Cc1ccc2cc(CN(C(=O)c3ccco3)c3ccccc3C)c(=O)[nH]c2c1`, where the note is “WT cells”, the IC50 was > 25 µM (inactive). Further, the pIC50 under setting [1] is below 4.60.
As to `O=C1CCCCC1C(Nc1ccc(Br)cc1)c1ccccc1` (stereo not drawn), the pIC50 was 4.69 (WT cells) and below 4.60 under setting [1].
Take `Cc1cnc(C(=O)OCC(=O)Nc2ccc(Cl)cc2)cn1`: the IC50 (WT cells) was > 25 µM (inactive). Besides, under setting [1], the pIC50 was below 4.90.
For `CCOC(=O)c1cnc(-c2ccccc2)nc1-c1ccccc1` the same measures were > 25 µM (inactive) and below 4.60.
On to `CCOC(=O)c1c(NC(=O)c2cccs2)sc2c1CCCC2`, for which the IC50 (WT cells) was > 25 µM (inactive). For the same compound, the negative-log IC50 (pIC50) under setting [1] was below 4.60.
In the case of `CCC(=Nc1ccc(OC)cc1OC)c1c(O)n(C2CCCCC2)c(=O)[nH]c1=O`, the pIC50 (WT cells) was 4.80 and the pIC50 under setting [1] is below 4.60.
For the compound `O=c1c2cn[nH]c2nc(SCc2ccccc2F)n1-c1ccc(Br)cc1`, the pIC50 (WT cells) is 4.95 and the pIC50 under setting [1] was 4.62.
Consider `CCCCc1cc2c(s1)CCCC/C2=N/O`, for which, where the note is “WT cells”, the IC50 was > 25 µM (inactive). This compound gave a pIC50 under setting [1] below 4.60.
The like results for `CN(CC(=O)O/N=C(\N)c1cccc([N+](=O)[O-])c1)S(=O)(=O)c1ccccc1` were, in that order, > 25 µM (inactive) and below 4.60.
Regarding `O=C(c1ccc(C(F)(F)F)cc1)N1CCC(=O)N(C(COCc2ccc(Cl)cc2)Cc2ccccc2)CC1` (stereo not drawn), the pIC50 runs as follows: (WT cells) 4.72; under setting [1], below 4.60.
Regarding `CCCN(CCC)C(=O)CC(c1ccccc1)c1cc(Br)ccc1O` (stereo not drawn), the pIC50 by setting is: (WT cells) 4.86; under setting [1], below 4.60.
Consider `Cc1nn(Cc2ccccc2Cl)c(C)c1NC(=O)NC12CC3CC(CC(C3)C1)C2`, for which the IC50 (WT cells) was > 25 µM (inactive). This compound also showed a pIC50 under setting [1] below 4.60.
As to `CC(C)(C)[C@H]1C=C(C(=O)N2CCN(Cc3ccc4c(c3)OCO4)CC2)O[C@@H](OCc2ccc(CO)cc2)C1`, the pIC50 (WT cells) was 5.00 and the pIC50 under setting [1] was below 4.60.
For the compound `CC1CCCCN1C(=O)Cn1cc(/C=C2/C(=O)Nc3ccccc32)c2ccccc21` (stereo not drawn), the pIC50 is, setting by setting: (WT cells) 4.61; under setting [1], below 4.60.
For `COC(=O)[C@H](Cc1ccccc1)NC(=O)O[C@H]1C(=O)c2ccc(OC)cc2O[C@@H]1c1ccc2c(c1)OCO2`, the pIC50 was 4.89 (WT cells) and below 4.60 under setting [1].
